According to patent US20240415921A1, “METHODS OF TREATING CANCER BY TARGETING TUMOR-ASSOCIATED MACROPHAGES” (ENDOCYTE, INC., priority 2014, published 2024):

Test system: 4T1 TAMs
Test: Activity against 4T1 TAMs in-vivo (FACS of harvested tumors)
Parameters: species or system nude rats
Details: single i.v. dose (Example 1 100 nmol/kg; EC0923 alone 50 μmol/kg), tumors harvested four days later
Excerpt: EXAMPLE 4. Example 1 activity against 4T1 TAMs in-vivo. As a proof-of-concept study, female Foxn1^nu nude rats (Harlan, Inc., Indianapolis, IN) on a folate-deficient diet are subcutaneously implanted with 1×10^6 4T1 tumor cells in the left and right mammary regions (2 tumors per animal). When the tumors reach about 900-1000 mm^3, the animals are intravenously dosed with (i) PBS (n=1), (ii) 100 nmol/kg of the folic acid-releasable linker-drug conjugate, such as Example1 (n=1), (iii) 100 nmol/kg of Example1 plus 50 μmol/kg of EC0923 (n=1), or (iv) 50 μmol/kg of EC0923 (n=1). Four days later, the tumors are harvested, enzymatically digested, and subjected to FACS analysis. The tumor cell suspensions are stained for macrophage markers (CD163 and/or CD11b), cell viability (propidium iodide), and late and early apoptosis (Annexin V).
EXAMPLE 13. Preparation of 4T1 xenograft tumors from nude rats and MDA-MB-231 tumors isolated from nude mice and A549 tumors isolated from nude mice. Each tumor is minced and placed into 20 mL of RPMI1640 (serum free) containing 0.5 mg/mL Collagenase IV, 0.05 mg/mL hyaluronidase, and 0.1 mg/mL DNaseI and placed in a shaker at 200 rpm for 1 hr at 37° C. […]

SMILES: Nc1nc2ncc(CNc3ccc(C(=O)N[C@@H](CCC(=O)N[C@H](CC(=O)O)C(=O)N[C@H](CC(=O)O)C(=O)O)C(=O)O)cc3)nc2c(=O)[nH]1 [EC0923, pteroyl-[…]Glu-D-Asp-D-Asp]
- viable CD163(+) CD11b(+) TAM population in 4T1 tumors: does not have any effect
